The text below walks through data of paper PMC5360941, “Simultaneous Determination and Pharmacokinetic Study of Quercetin, Luteolin, and Apigenin in Rat Plasma after Oral Administration of Matricaria chamomilla L. Extract by HPLC-UV” (Evidence-based Complementary and Alternative Medicine : eCAM, 2017).

Data set [1] in a line: Stability of the analytes in rat plasma (QC samples under different storage conditions). To be noted: for Stability in plasma (in words): plasma stored at 20°C for 24 h, −20°C for 30 days, and after three freeze-thaw cycles, low, medium, high concentrations, stable = 85–115% of initial; for Freeze-thaw stability, found conc. / Short-term stability, found conc. / Long-term stability, found conc.: rat plasma, n = 6; for Freeze-thaw stability, found conc.: 3 freeze-thaw cycles; for Short-term stability, found conc.: 24 h at room temperature; for Long-term stability, found conc.: 30 days at −20°C. The class given is in vitro ADME. As for the experimental part: QC samples were prepared in the same way as the calibration samples, representing three different level concentrations (low, medium, and high) of quercetin in plasma at 0.57, 2.84, and 9.09 μg/ml, luteolin at 0.56, 2.80, and 8.96 μg/ml, and apigenin at 0.53, 2.65, and 8.48 μg/ml, respectively. The stability of the analytes in plasma was investigated by determining QC plasma samples of the three concentration levels under different storage conditions: 24 h at room temperature, three freeze (−20°C) and thaw (room temperature) cycles, stored at −20°C for 30 days. They were considered stable when 85–115% of the initial concentrations were got. All stability testing QC samples were determined by using the calibration curve of freshly prepared standard samples.

A short description of data set [2]: Pharmacokinetic study in rats after oral administration of M. chamomilla extract (HPLC-UV of plasma). It is filed as in vivo, Male Sprague-Dawley rats. To be noted: oral M. chamomilla extract (quercetin 8.51 mg/kg, luteolin 56.49 mg/kg, apigenin 13.82 mg/kg), mean ± SD; for AUC(0-inf) / AUC(0-t) / Cmax / Tmax / half-life: male, Sprague-Dawley, rat; for AUC(0-inf) / T1/2, elimination half-life: n = 6; for AUC(0-t): n = 6, read-out: AUC0–12; for Cmax: n = 6, read-out: Cmax, maximum plasma concentration; for Tmax: noncompartmental, n = 6, read-out: Tmax, time to reach the maximum plasma concentration; for half-life: po, n = 6, read-out: T1/2, elimination half-life (converted). As for the experimental part: All analyses were performed on a Shimadzu HPLC system, equipped with LC-20AT pump, a Shimadzu SCL-10A system controller, and a SPD-20A DAD-UV detector. The HPLC analysis was performed on an Agilent Eclipse XDB-C18 column (250 mm × 4.6 mm, 5 μm) with a mobile phase consisting of methanol and 0.2% phosphoric acid (50 : 50, v/v) with a constant rate of 1.0 ml/min. The injection volume was 10 μl and the column temperature was set at 25°C. The wavelength was set at 350 nm for quantitative analysis; the proportion of components in the mobile phase was optimized to obtain a well separation of quercetin, luteolin, apigenin, and kaempferol (IS).
An aliquot of 100 μL rat plasma was transferred to a 1.5 mL plastic tube to which was added 10 μL IS (22.52 μg/ml) for processing. After being vortex-mixed for 30 seconds, the plasma sample was then extracted with 800 μl of ethyl acetate and centrifuged at 18000g for 10 min, where ethyl acetate acted as a deproteinization-extraction agent. The procedure of extraction was performed two times. The organic layer was dried at 40°C under nitrogen stream. The residue was reconstituted in 100 μL of methanol solution, vortexed for 1 min, and centrifuged at 18000g for 10 min. The supernatant transferred to a glass insert, and 10 μL of the sample was injected into the HPLC column for analysis. The method of sample preparation was also applied for determination of accuracy, precision, and recovery.
Male Sprague-Dawley rats (body weight 160 ± 20 g) were purchased from Beijing Vital River Laboratory Animal Technology (Beijing, China). Rats were housed in a temperature- and humidity-controlled environment (25°C, 65% RH) and maintained on a 12-hour light/dark cycle for 3 days with free access to food and water before starting the experiment. The animal experiments were performed in accordance with the principles of the International Guide for the Care and Use of Laboratory Animals and were approved by the Committee on Animal Care and Usage of the Beijing University of Chinese Medicine (number SYXK 2011-0024).
The extracts of M. chamomilla (quercetin was 8.51 mg/kg, luteolin was 56.49 mg/kg, and apigenin was 13.82 mg/kg) freshly prepared in 0.5% CMC-Na solution were orally administered to six rats. Blood samples (0.5 mL) were collected from the ocular fundus veins of rats before administration and after 10, 20, 30, and 45 min and 1, 1.5, 2, 4, 6, 8, and 12 h after oral administration of M. chamomilla extract. The plasma was immediately centrifuged at 3200g for 10 min to separate out plasma and then stored frozen at −20°C until analysis.
The pharmacokinetic parameters of quercetin, luteolin, and apigenin were calculated by Kinetica 4.4 software (Thermo Scientific, USA). Noncompartmental analysis was used to determine standard pharmacokinetic parameters of analytes. All the results were expressed as means ± standard deviation (SD) of six replicates.

Setting [3] is: high QC (spiked 9.09 quercetin, 8.96 luteolin, 8.48 apigenin μg/ml).
[4] abbreviates: low QC (spiked 0.57 quercetin, 0.56 luteolin, 0.53 apigenin μg/ml).
Setting [5] is: medium QC (spiked 2.84 quercetin, 2.80 luteolin, 2.65 apigenin μg/ml).

With `O=c1c(O)c(-c2ccc(O)c(O)c2)oc2cc(O)cc(O)c12` [Quercetin, quercetin], in data set [1], the “Stability in plasma (in words)” value is “stable”. Further, in data set [1] (setting [3]), the “Freeze-thaw stability, found conc.” value is 9.24 ± 0.55 µg/mL; the “Short-term stability, found conc.” value came out at 9.15 ± 0.69 µg/mL; the “Long-term stability, found conc.” value turned out to be 9.59 ± 0.53 µg/mL. In data set [1] (setting [4]), the “Freeze-thaw stability, found conc.” value worked out at 0.63 ± 0.01 µg/mL; the “Short-term stability, found conc.” value stood at 0.63 ± 0.01 µg/mL; the “Long-term stability, found conc.” value came to 0.62 ± 0.03 µg/mL. In data set [1] (setting [5]), the “Freeze-thaw stability, found conc.” value was 3.09 ± 0.09 µg/mL; the “Short-term stability, found conc.” value was found to be 3.09 ± 0.18 µg/mL; the “Long-term stability, found conc.” value stood at 3.10 ± 0.16 µg/mL. Moreover, in data set [2], the AUC(0-inf) (in general, total exposure, with the tail of the curve extrapolated) came out at 3880 ± 1000 ng·h/mL; the AUC(0-t) came to 1790 ± 290 ng·h/mL; the Cmax worked out at 290 ± 60 ng/mL; the Tmax is about 0.79 h. In data set [2], the half-life is about 13.6 h.
For `O=c1cc(-c2ccc(O)cc2)oc2cc(O)cc(O)c12` [Apigenin, apigenin], the “Stability in plasma (in words)” value in data set [1] is “stable”. Further, in data set [1] (setting [3]), the “Freeze-thaw stability, found conc.” value amounted to 7.87 ± 0.50 µg/mL; the “Short-term stability, found conc.” value was found to be 8.31 ± 0.72 µg/mL; the “Long-term stability, found conc.” value was 8.27 ± 0.62 µg/mL. Further, in data set [1] (setting [4]), the “Freeze-thaw stability, found conc.” value is 0.48 ± 0.02 µg/mL; the “Short-term stability, found conc.” value is 0.50 ± 0.04 µg/mL; the “Long-term stability, found conc.” value was 0.46 ± 0.04 µg/mL. Besides, in data set [1] (setting [5]), the “Freeze-thaw stability, found conc.” value stood at 2.60 ± 0.14 µg/mL; the “Short-term stability, found conc.” value was found to be 2.64 ± 0.16 µg/mL; the “Long-term stability, found conc.” value came to 2.61 ± 0.13 µg/mL. In addition, in data set [2], the area under the curve AUC(0-inf) was 5030 ± 1720 ng·h/mL, the AUC(0-t) is 2910 ± 740 ng·h/mL, the Cmax was found to be 420 ± 110 ng/mL and the Tmax was about 0.51 h. Also, in data set [2], the half-life was about 8.82 h and the “T1/2, elimination half-life” value was found to be 8.82 ± 4.15 h.
In the case of `O=c1cc(-c2ccc(O)c(O)c2)oc2cc(O)cc(O)c12` [Luteolin, luteolin], in data set [1], the “Stability in plasma (in words)” value is recorded as “stable”. Further, in data set [1] (setting [3]), the “Freeze-thaw stability, found conc.” value was determined as 8.56 ± 0.54 µg/mL; the “Short-term stability, found conc.” value was 8.96 ± 0.76 µg/mL; the “Long-term stability, found conc.” value was found to be 8.99 ± 0.65 µg/mL. Also, in data set [1] (setting [4]), the “Freeze-thaw stability, found conc.” value stood at 0.62 ± 0.02 µg/mL; the “Short-term stability, found conc.” value amounted to 0.62 ± 0.01 µg/mL; the “Long-term stability, found conc.” value came to 0.61 ± 0.03 µg/mL. Further, in data set [1] (setting [5]), the “Freeze-thaw stability, found conc.” value amounted to 2.91 ± 0.15 µg/mL; the “Short-term stability, found conc.” value came out at 2.94 ± 0.14 µg/mL; the “Long-term stability, found conc.” value came to 2.92 ± 0.15 µg/mL. Also, in data set [2], the AUC(0-inf) was determined as 19900 ± 5060 ng·h/mL, the AUC(0-t) was found to be 16000 ± 2380 ng·h/mL, the Cmax was 3040 ± 600 ng/mL and the Tmax was about 0.42 h. For the same compound, in data set [2], the half-life was about 4.43 h and the “T1/2, elimination half-life” value is given as 4.43 ± 1.84 h.
